{
  "source": "patent EP4537835A1",
  "about": "“MIXTURE, COMPOSITIONS CONTAINING THAT MIXTURE AND USE THEREOF IN THE TREATMENT OF FEMAL INFERTILITY” (Nutra Futura S.r.l., priority 2023, dated 2025)",
  "data": [
    {"system": "CaCo-2 cells", "assay": "Dose-response study of cell viability (MTT assay) on CaCo-2 cells", "type": "cell-based, human", "details": "p<0.05 compared to the other tested doses", "experimental": "The human intestinal epithelial cell line CaCo-2, purchased from the American Type Culture Collection (ATCC), was used as an experimental model to predict the characteristics of intestinal absorption following oral administration. This cell line was cultured in Dulbecco's Modified Eagle Medium/Nutrient F-12 Ham (DMEM-F12, Merck Life Science, Rome, Italy) containing 10% FBS (Merck Life Science, Rome, Italy), 2 mM of L-glutamine and 1% penicillin-streptomycin (Merck Life Science, Rome, Italy) and kept in an incubator at 37 °C and 5% CO2. The experiments were conducted using cells with a passage number comprised between 26 and 32 to maintain the correct properties of permeability and paracellular transport. The cells were seeded in various ways, including 1 × 10^4 cells in 96-well plates, in order to study cell viability and ROS production, synchronising the cells for 8 hours with DMEM without phenol red and supplemented with 0.5% FBS, 2 mM L-glutamine and 1% penicillin-streptomycin at 37 °C; 2 × 10^4 cells in Transwell® 6.5 mm plates (Corning® Costar®, Merck Life Science, Rome, Italy) with a polycarbonate membrane insert with 0.4 µm pores (Corning® Costar®, Merck Life Science, Rome, Italy) in a 24-well plate in order to perform the absorption analyses.\nThe analysis of cell viability was carried out with a classic technique based on the MTT in vitro toxicology assay kit (Merck Life Science, Rome, Italy), following the manufacturer's instructions. In fact, at the end of the treatment, the cells were incubated with 1% MTT dye for 2 hours in an incubator at 37 °C, 5% CO2 and 95% humidity; the purple formazan crystals were then dissolved in an equal volume of MTT solubilisation solution. Absorbance was analysed with a spectrophotometer (Infinite 200 Pro MPlex, Tecan, Männedorf, Switzerland) at 570 nm with correction at 690 nm, and the results were expressed versus the control ([…]), which represented the untreated cells. The results represent the percentage of viable cells versus the control, which makes it possible to understand whether the stimulation is safe or not.\nWith the aim of evaluating what the best concentration of each selected substance might be, and to prevent any cytotoxic effect, the viability of the CaCo-2 cells was analysed by means of the MTT assay.\n• L. crispatus (10 mg/ml; 20 mg/ml; 30 mg/ml; 40 mg/ml; 50 mg/ml) • NAC (0.3 mM; 0.6 mM; 1 mM) • lycopene (0.1 µM; 0.2 µM; 0.5 µM) • vitamin D3 (10 nM; 100 nM) • folic acid (10 µM; 50 µM; 125 µM; 500 µM)\nTherefore, these were maintained for all the subsequent experiments.", "units": {"most effective concentration (cell viability)": "µM"}, "values": [
      {"smiles": "CC(C)=CCC/C(C)=C/C=C/C(C)=C/C=C/C(C)=C/C=C/C=C(C)/C=C/C=C(C)/C=C/C=C(\\C)CCC=C(C)C", "note": "[Lycopene, (6E,8E,10E,12E,14E,16E,18E,20E,22E,24E,26E)-2,6,10,14,19,23,27,31-Octamethyl-dotriaconta-2,6,8,10,12,14,16,18,20,22,24,26,30-tridecane]", "most effective concentration (cell viability)": 0.2},
      {"smiles": "C=C1CC[C@H](O)C/C1=C/C=C1\\CCC[C@]2(C)[C@@H]([C@H](C)CCCC(C)C)CC[C@@H]12", "note": "[Vitamin D, cholecalciferol]", "most effective concentration (cell viability)": 0.01},
      {"smiles": "Nc1nc(=O)c2nc(CNc3ccc(C(=O)N[C@@H](CCC(=O)O)C(=O)O)cc3)cnc2[nH]1", "note": "[Folic acid, (S)-2-(4-((2-amino-4-hydroxypteridin-6-yl)-methylamino)benzamide)pentanedioic acid]", "most effective concentration (cell viability)": 50},
      {"smiles": "CC(=O)N[C@@H](CS)C(=O)O", "note": "[NAC, N-acetyl-L-cysteine]", "most effective concentration (cell viability)": 600}
    ]}
  ]
}
